The values below are quoted from earlier work in US10232037B2, “Supramolecular hydrogel of fMLF-based molecules and use thereof” (BRANDEIS UNIVERSITY, priority 2014, dated 2019).

This series relates to neutrophils. The following applies: aqueous solution, literature.

Molecules are shown by their SMILES.

In the case of `CSCC[C@H](NC=O)C(=O)N[C@@H](CC(C)C)C(=O)N[C@@H](Cc1ccccc1)C(=O)O` [fMLF, N-formyl-L-methionyl-L-leucyl-L-phenylalanine], the “duration of neutrophil accumulation effect” value is 2 to 6 h.
